Measured values from the kinase profiling compilation of Christmann-Franck et al. (2016).

How the values were obtained:
Assay in all cases: radiometric filter-binding kinase assay
BRSK2 (human) = BRSK2 (human) (UniProt Q8IWQ3); settings: compound 100.0 µM; ATP 50 µM
MAPKAPK2 (human) = MAPKAPK2 (human) (UniProt P49137); settings: compound 100.0 µM; ATP 20 µM
PIM3 (human) = PIM3 (human) (UniProt Q86V86); settings: compound 100.0 µM; ATP 20 µM
PRKCG (human) = PRKCG (human) (UniProt P05129); settings: compound 100.0 µM; ATP 20 µM
PHKG1 (human) = PHKG1 (human) (UniProt Q16816); settings: compound 100.0 µM; ATP 50 µM
GSK3B (human) = GSK3B (human) (UniProt P49841); settings: compound 100.0 µM; ATP 5 µM
DAPK1 (human) = DAPK1 (human) (UniProt P53355); settings: compound 100.0 µM; ATP 5 µM
TEK (human) = TEK (human) (UniProt Q02763); settings: compound 100.0 µM; ATP 20 µM
HIPK3 (human) = HIPK3 (human) (UniProt Q9H422); settings: compound 100.0 µM; ATP 20 µM
HIPK1 (human) = HIPK1 (human) (UniProt Q86Z02); settings: compound 100.0 µM; ATP 20 µM
AURKA (human) = AURKA (human) (UniProt O14965); settings: compound 100.0 µM; ATP 5 µM
MAP2K6 (human) = MAP2K6 (human) (UniProt P52564); settings: compound 100.0 µM; ATP 50 µM
MAPK15 (human) = MAPK15 (human) (UniProt Q8TD08); settings: compound 100.0 µM; ATP 5 µM
MAP3K9 (human) = MAP3K9 (human) (UniProt P80192); settings: compound 100.0 µM; ATP 20 µM
NEK6 (human) = NEK6 (human) (UniProt Q9HC98); settings: compound 100.0 µM; ATP 50 µM
BTK (human) = BTK (human) (UniProt Q06187); settings: compound 100.0 µM; ATP 50 µM
[1] = test system: RPS6KB1 (human), P23443 [T412E]; settings: compound 100.0 µM; ATP 20 µM
SRC (human) = SRC (human) (UniProt P12931); settings: compound 100.0 µM; ATP 50 µM
TBK1 (human) = TBK1 (human) (UniProt Q9UHD2); settings: compound 100.0 µM; ATP 50 µM
CAMKK2 (human) = CAMKK2 (human) (UniProt Q96RR4); settings: compound 100.0 µM; ATP 20 µM
AURKB (human) = AURKB (human) (UniProt Q96GD4); settings: compound 100.0 µM; ATP 20 µM
NTRK1 (human) = NTRK1 (human) (UniProt P04629); settings: compound 100.0 µM; ATP 20 µM
CaMK1 (human) = CaMK1 (human) (UniProt Q14012); settings: compound 100.0 µM; ATP 50 µM
SYK (human) = SYK (human) (UniProt P43405); settings: compound 100.0 µM; ATP 20 µM
MARK2 (human) = MARK2 (human) (UniProt Q7KZI7); settings: compound 100.0 µM; ATP 20 µM
DYRK3 (human) = DYRK3 (human) (UniProt O43781); settings: compound 100.0 µM; ATP 5 µM
DYRK1A (human) = DYRK1A (human) (UniProt Q13627); settings: compound 100.0 µM; ATP 50 µM
IKBKE (human) = IKBKE (human) (UniProt Q14164); settings: compound 100.0 µM; ATP 50 µM
ERBB4 (human) = ERBB4 (human) (UniProt Q15303); settings: compound 100.0 µM; ATP 5 µM
RIPK2 (human) = RIPK2 (human) (UniProt O43353); settings: compound 100.0 µM; ATP 20 µM
[2] = target: PRKAA1 PRKAB2 PRKAG1 (human) (UniProt O43741+Q13131+P54619); settings: compound 100.0 µM; ATP 20 µM
NUAK1 (human) = NUAK1 (human) (UniProt O60285); settings: compound 100.0 µM; ATP 20 µM
PAK7 (human) = PAK7 (human) (UniProt Q9P286); settings: compound 100.0 µM; ATP 20 µM
MYLK (human) = MYLK (human) (UniProt Q15746); settings: compound 100.0 µM; ATP 50 µM
STK33 (human) = STK33 (human) (UniProt Q9BYT3); settings: compound 100.0 µM; ATP 50 µM
CHEK1 (human) = CHEK1 (human) (UniProt O14757); settings: compound 100.0 µM; ATP 20 µM
MAP2K1 (human) = MAP2K1 (human) (UniProt Q02750); settings: compound 100.0 µM; ATP 5 µM
MAPK10 (human) = MAPK10 (human) (UniProt P53779); settings: compound 100.0 µM; ATP 20 µM
EPHB1 (human) = EPHB1 (human) (UniProt P54762); settings: compound 100.0 µM; ATP 20 µM
PRKCA (human) = PRKCA (human) (UniProt P17252); settings: compound 100.0 µM; ATP 20 µM

Chain of RPS6KB1 (human), P23443 [T412E] (P23443 whole entry T412E, looked up): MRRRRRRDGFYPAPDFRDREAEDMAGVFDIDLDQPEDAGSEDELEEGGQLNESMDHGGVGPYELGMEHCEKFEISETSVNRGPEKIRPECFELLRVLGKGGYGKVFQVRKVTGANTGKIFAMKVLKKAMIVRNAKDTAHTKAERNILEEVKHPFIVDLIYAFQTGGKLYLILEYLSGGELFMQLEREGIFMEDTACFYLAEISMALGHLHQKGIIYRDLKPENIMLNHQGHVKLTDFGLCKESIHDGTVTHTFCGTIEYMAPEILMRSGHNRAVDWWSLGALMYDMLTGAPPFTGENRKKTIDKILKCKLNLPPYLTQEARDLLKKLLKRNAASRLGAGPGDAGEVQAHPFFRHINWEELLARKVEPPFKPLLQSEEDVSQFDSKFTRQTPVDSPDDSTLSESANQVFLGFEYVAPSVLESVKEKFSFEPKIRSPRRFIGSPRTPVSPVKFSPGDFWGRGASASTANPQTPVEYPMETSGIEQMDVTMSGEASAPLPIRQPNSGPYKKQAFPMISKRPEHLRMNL
Chain of SRC (human) (P12931 whole entry, looked up): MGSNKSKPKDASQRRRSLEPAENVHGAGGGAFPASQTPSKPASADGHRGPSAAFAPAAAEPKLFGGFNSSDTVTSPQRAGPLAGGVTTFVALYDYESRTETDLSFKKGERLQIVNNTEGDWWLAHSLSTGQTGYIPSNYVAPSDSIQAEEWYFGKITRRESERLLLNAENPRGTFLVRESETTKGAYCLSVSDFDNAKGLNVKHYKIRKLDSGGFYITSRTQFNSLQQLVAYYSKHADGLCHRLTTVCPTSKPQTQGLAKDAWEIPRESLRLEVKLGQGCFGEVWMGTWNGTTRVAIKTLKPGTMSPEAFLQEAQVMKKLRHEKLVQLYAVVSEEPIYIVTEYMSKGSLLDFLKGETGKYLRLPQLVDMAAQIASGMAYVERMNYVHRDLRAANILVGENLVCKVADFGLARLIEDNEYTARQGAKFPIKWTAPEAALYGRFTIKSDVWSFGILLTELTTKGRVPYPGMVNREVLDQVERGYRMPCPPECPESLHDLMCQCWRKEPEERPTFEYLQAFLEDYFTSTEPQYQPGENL
Chain of RIPK2 (human) (O43353 whole entry, looked up): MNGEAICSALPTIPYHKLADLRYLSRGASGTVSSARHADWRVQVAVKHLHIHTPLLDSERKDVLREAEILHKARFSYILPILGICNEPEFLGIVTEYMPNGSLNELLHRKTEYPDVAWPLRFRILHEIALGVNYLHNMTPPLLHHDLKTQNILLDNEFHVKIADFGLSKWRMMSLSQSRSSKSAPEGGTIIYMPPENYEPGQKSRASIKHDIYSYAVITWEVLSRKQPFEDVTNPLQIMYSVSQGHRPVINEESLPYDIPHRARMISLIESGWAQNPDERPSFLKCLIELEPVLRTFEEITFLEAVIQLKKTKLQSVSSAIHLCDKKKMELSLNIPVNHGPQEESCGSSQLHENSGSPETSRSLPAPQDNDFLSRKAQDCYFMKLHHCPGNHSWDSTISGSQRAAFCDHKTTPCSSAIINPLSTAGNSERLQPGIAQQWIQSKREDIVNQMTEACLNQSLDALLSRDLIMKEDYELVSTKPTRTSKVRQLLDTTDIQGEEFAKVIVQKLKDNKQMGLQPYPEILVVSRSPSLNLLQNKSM
Chain of TEK (human) (Q02763 whole entry, looked up): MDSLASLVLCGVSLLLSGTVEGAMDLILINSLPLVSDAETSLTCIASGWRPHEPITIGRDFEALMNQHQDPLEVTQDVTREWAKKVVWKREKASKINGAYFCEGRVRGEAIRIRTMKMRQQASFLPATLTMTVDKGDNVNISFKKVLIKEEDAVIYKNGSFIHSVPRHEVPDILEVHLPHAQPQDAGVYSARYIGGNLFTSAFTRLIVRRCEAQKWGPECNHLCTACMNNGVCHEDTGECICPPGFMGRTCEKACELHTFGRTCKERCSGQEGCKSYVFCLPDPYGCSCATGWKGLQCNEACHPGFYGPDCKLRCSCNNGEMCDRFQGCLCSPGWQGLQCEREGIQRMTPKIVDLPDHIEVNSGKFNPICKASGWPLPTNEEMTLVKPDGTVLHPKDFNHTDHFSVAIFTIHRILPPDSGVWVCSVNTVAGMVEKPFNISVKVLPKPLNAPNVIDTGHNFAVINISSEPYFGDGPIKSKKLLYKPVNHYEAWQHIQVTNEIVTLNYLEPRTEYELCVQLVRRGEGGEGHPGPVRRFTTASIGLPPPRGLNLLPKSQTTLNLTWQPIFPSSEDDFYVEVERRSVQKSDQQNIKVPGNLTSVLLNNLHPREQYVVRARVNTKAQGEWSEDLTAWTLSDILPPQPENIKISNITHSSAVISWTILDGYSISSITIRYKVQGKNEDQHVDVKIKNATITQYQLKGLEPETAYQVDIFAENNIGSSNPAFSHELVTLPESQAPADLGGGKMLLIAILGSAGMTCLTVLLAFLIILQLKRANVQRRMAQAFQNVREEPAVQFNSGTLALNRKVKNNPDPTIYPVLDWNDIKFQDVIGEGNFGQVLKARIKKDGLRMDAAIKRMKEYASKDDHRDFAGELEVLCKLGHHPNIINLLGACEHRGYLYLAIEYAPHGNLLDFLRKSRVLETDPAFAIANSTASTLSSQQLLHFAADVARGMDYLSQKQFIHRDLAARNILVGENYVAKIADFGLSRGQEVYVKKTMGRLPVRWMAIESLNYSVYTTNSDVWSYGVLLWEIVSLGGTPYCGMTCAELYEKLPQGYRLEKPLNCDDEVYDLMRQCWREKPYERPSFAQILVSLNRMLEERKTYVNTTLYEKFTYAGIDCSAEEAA
Chain of TBK1 (human) (Q9UHD2 whole entry, looked up): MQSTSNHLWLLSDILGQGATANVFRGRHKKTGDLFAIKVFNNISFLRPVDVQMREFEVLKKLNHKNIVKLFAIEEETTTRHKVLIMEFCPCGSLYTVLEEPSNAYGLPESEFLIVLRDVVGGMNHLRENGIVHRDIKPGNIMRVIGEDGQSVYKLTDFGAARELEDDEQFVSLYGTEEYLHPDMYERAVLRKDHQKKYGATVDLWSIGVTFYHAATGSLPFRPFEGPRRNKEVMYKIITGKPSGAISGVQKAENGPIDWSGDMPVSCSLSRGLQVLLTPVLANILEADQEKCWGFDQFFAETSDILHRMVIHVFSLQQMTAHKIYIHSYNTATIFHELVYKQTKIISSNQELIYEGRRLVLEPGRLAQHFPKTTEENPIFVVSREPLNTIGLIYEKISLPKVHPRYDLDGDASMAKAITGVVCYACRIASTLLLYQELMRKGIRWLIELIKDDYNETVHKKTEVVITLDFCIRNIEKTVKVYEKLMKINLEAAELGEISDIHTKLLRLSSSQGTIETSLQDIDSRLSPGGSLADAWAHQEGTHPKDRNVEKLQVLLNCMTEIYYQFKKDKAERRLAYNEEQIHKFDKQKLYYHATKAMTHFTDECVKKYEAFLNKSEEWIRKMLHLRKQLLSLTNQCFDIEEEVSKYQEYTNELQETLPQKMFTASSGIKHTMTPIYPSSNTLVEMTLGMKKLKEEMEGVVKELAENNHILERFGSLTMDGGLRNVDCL

inhibition (BRSK2 (human)) [%] | inhibition (MAPKAPK2 (human)) [%] | inhibition (PIM3 (human)) [%] | inhibition (PRKCG (human)) [%] | inhibition (PHKG1 (human)) [%] | inhibition (GSK3B (human)) [%] | inhibition (DAPK1 (human)) [%] | inhibition (TEK (human)) [%] | inhibition (HIPK3 (human)) [%] | inhibition (HIPK1 (human)) [%] | inhibition (AURKA (human)) [%] | inhibition (MAP2K6 (human)) [%] | inhibition (MAP3K9 (human)) [%] | inhibition (NEK6 (human)) [%] | inhibition (BTK (human)) [%] | inhibition [1] [%] | inhibition (SRC (human)) [%] | inhibition (TBK1 (human)) [%] | inhibition (CAMKK2 (human)) [%] | Structure (SMILES) | inhibition (MAPK15 (human)) [%] | further results
30 | 15 | 51 | 16 | 9 | 70 | 0 | 0 | 0 | 10 | 21 | 2 | 0 | 44 | 46 | 34 | 33 | 17 | 0 | O=C(c1cccc(-c2cc3c(=O)[nH]cnc3s2)c1)N1CCOCC1 | 72 | inhibition (AURKB (human)): 6%; inhibition (NTRK1 (human)): 41%; inhibition (CaMK1 (human)): 75%; inhibition (SYK (human)): 0%; inhibition (MARK2 (human)): 0%; inhibition (DYRK3 (human)): 47%; inhibition (DYRK1A (human)): 52%; inhibition (IKBKE (human)): 36%; inhibition (ERBB4 (human)): 33%; inhibition (RIPK2 (human)): 12%; inhibition [2]: 50%; inhibition (NUAK1 (human)): 0%; inhibition (PAK7 (human)): 0%; inhibition (MYLK (human)): 8%; inhibition (STK33 (human)): 0%; inhibition (CHEK1 (human)): 0%; inhibition (MAP2K1 (human)): 31%; inhibition (MAPK10 (human)): 7%; inhibition (EPHB1 (human)): 0%; inhibition (PRKCA (human)): 21%
26 | 0 | 0 | 9 | 6 | 24 | 0 | 9 | 0 | 6 | 16 | 3 | 0 | 0 | 6 | 0 | 0 | 1 | 34 | CC(C)(C)Nc1c(C2CC2)nc2[nH]cnn12 | 60 | inhibition (AURKB (human)): 34%; inhibition (NTRK1 (human)): 27%; inhibition (CaMK1 (human)): 22%; inhibition (SYK (human)): 7%; inhibition (MARK2 (human)): 0%; inhibition (DYRK3 (human)): 7%; inhibition (DYRK1A (human)): 0%; inhibition (IKBKE (human)): 0%; inhibition (ERBB4 (human)): 19%; inhibition (RIPK2 (human)): 0%; inhibition [2]: 5%; inhibition (NUAK1 (human)): 24%; inhibition (PAK7 (human)): 18%; inhibition (MYLK (human)): 14%; inhibition (STK33 (human)): 0%; inhibition (CHEK1 (human)): 0%; inhibition (MAP2K1 (human)): 0%; inhibition (MAPK10 (human)): 1%; inhibition (EPHB1 (human)): 0%; inhibition (PRKCA (human)): 0%
18 | 14 | 26 | 6 | 41 | 27 | 0 | 6 | 7 | 16 | 12 | 8 | 18 | 3 | 44 | 8 | 29 | 21 | 21 | Cc1cccc(C)c1-c1cn2nc(N)nc2cn1 | 25 | inhibition (AURKB (human)): 29%; inhibition (NTRK1 (human)): 8%; inhibition (CaMK1 (human)): 52%; inhibition (SYK (human)): 26%; inhibition (MARK2 (human)): 0%; inhibition (DYRK3 (human)): 30%; inhibition (DYRK1A (human)): 19%; inhibition (IKBKE (human)): 28%; inhibition (ERBB4 (human)): 28%; inhibition (RIPK2 (human)): 43%; inhibition [2]: 12%; inhibition (NUAK1 (human)): 28%; inhibition (PAK7 (human)): 13%; inhibition (MYLK (human)): 12%; inhibition (STK33 (human)): 12%; inhibition (CHEK1 (human)): 9%; inhibition (MAP2K1 (human)): 22%; inhibition (MAPK10 (human)): 17%; inhibition (EPHB1 (human)): 22%; inhibition (PRKCA (human)): 9%
34 | 26 | 0 | 0 | 30 | 2 | 5 | 0 | 0 | 0 | 23 | 0 | 0 | 3 | 25 | 0 | 38 | 7 | 0 | COc1ccc(NC(=S)Nc2cnc3[nH]cnn3c2=O)cn1 | 8 | inhibition (AURKB (human)): 0%; inhibition (NTRK1 (human)): 0%; inhibition (CaMK1 (human)): 0%; inhibition (SYK (human)): 9%; inhibition (MARK2 (human)): 0%; inhibition (DYRK3 (human)): 20%; inhibition (DYRK1A (human)): 10%; inhibition (IKBKE (human)): 0%; inhibition (ERBB4 (human)): 31%; inhibition (RIPK2 (human)): 0%; inhibition [2]: 0%; inhibition (NUAK1 (human)): 0%; inhibition (PAK7 (human)): 0%; inhibition (MYLK (human)): 0%; inhibition (STK33 (human)): 15%; inhibition (CHEK1 (human)): 0%; inhibition (MAP2K1 (human)): 11%; inhibition (MAPK10 (human)): 0%; inhibition (EPHB1 (human)): 1%; inhibition (PRKCA (human)): 23%
27 | 29 | 0 | 0 | 44 | 9 | 16 | 0 | 0 | 24 | 6 | 0 | 2 | 15 | 14 | 4 | 8 | 14 | 0 | O=C(Nc1cnc2[nH]ccn2c1=O)c1ccccc1 | 7 | inhibition (AURKB (human)): 0%; inhibition (NTRK1 (human)): 39%; inhibition (CaMK1 (human)): 11%; inhibition (SYK (human)): 22%; inhibition (MARK2 (human)): 0%; inhibition (DYRK3 (human)): 18%; inhibition (DYRK1A (human)): 0%; inhibition (IKBKE (human)): 3%; inhibition (ERBB4 (human)): 25%; inhibition (RIPK2 (human)): 16%; inhibition [2]: 0%; inhibition (NUAK1 (human)): 0%; inhibition (PAK7 (human)): 3%; inhibition (MYLK (human)): 36%; inhibition (STK33 (human)): 21%; inhibition (CHEK1 (human)): 2%; inhibition (MAP2K1 (human)): 24%; inhibition (MAPK10 (human)): 0%; inhibition (EPHB1 (human)): 17%; inhibition (PRKCA (human)): 2%
